How the values were obtained:
carbonic anhydrase = experiment: in vitro carbonic anhydrase activity, simplified method of Maren; assay type: biochemical
Protocol: The procedure required the use of a specialized glass reaction vessel to which was added 0.4 ml phenol red indicator (0.00125%), 0.25 to 0.30 ml heparinized blood containing 2 enzyme units of carbonic anhydrase, 0.1 ml drug solution (0.01 to 100 mg/L) and 0.1 ml of 0.255 M carbonate buffer. […] Each reagent was added at a specified time and in a specified order. […] Reaction time was the time for the uncatalyzed reaction time. […] By varying the time before adding the carbonate buffer and then determining the reaction time, the equilibration time can be accurately determined. The reaction time was averaged over three determinations. A range of drug concentrations were reacted and the concentration of drug causing 50% inhibition of enzyme (I50) read from a plot of reaction time against drug concentration. (If two enzyme units are added, then the concentration of drug yielding a reaction time corresponding to the activity of one unit is taken as the I50).

[1] = test system: eye of normal adult white rabbits; experiment: Salted rabbit test: intraocular pressure after topical instillation; assay type: in vivo; conditions: for IOP change, Av. Chg.: 1% w/v suspension, 3 drops topical, vs placebo fellow eye, six rabbits
Protocol: In particular, an initial drop from the test formulation followed by two drops at one minute intervals are applied to one eye of each of six adult white rabbits that had been maintained on a diet containing 0.5% sodium. The treated eye was selected randomly, whereas, the fellow eye received placebo; the observer was masked. Results identified a small but significant reduction of intraocular pressure in the treated eye at 30, 60 and 120 minutes.
One drop, followed by two drops each at one minute intervals, was applied to one eye of normal adult white rabbits. Six rabbits were used in the experiment. The treated eye was selected randomly, whereas, the fellow eye received placebo. The observer was masked. The intraocular pressure (IOP) was measured with a Digilab pneumotonometer, initially and every ten minutes for 120 minutes following instillation of the anti-glaucoma agent. A drop of local anesthetic was applied just prior to making the measurement.

| SMILES | I50 (concentration of drug causing 50% inhibition of enzyme), averaged (carbonic anhydrase; heparinized blood containing 2 enzyme units of carbonic anhydrase, 0° C.) | IOP change, Av. Chg. ([1]; 10 minutes) | IOP change, Av. Chg. ([1]; 20 minutes) | IOP change, Av. Chg. ([1]; 30 minutes) | IOP change, Av. Chg. ([1]; 40 minutes) | IOP change, Av. Chg. ([1]; 50 minutes) | IOP change, Av. Chg. ([1]; 60 minutes) | IOP change, Av. Chg. ([1]; 70 minutes) | IOP change, Av. Chg. ([1]; 80 minutes) | IOP change, Av. Chg. ([1]; 90 minutes) | IOP change, Av. Chg. ([1]; 100 minutes) | IOP change, Av. Chg. ([1]; 110 minutes) | IOP change, Av. Chg. ([1]; 120 minutes) | effect on intraocular pressure (IOP) in vivo (in words) ([1]; after topical administration) | lowering of IOP, statistical significance ([1]; all time intervals, 10 to 120 minutes) | time required for carbonic anhydrase to reach an equilibrium with drug (carbonic anhydrase; time between addition of drug solution and carbonate buffer) |
| --- | --- | --- | --- | --- | --- | --- | --- | --- | --- | --- | --- | --- | --- | --- | --- | --- |
| CNS(=O)(=O)c1nnc(NC(C)=O)s1 [methyl acetazolamide, N-methyl-2-acetylamino-1,3,4-thiadiazole-5-sulfonamide] | 0.520 mg/L | -2 mm Hg | -1.67 mm Hg | -2.33 mm Hg | -0.40 mm Hg | -1.83 mm Hg | -1.67 mm Hg | -1.67 mm Hg | -2.14 mm Hg | -1.50 mm Hg | -2.67 mm Hg | -0.67 mm Hg | -1.5 mm Hg | able to reduce intraocular pressure | statistically significant | – |
| Nc1ccc(S(N)(=O)=O)cc1 [sulfanilamide, reference compound] | – | – | – | – | – | – | – | – | – | – | – | – | – | – | – | 10 s |

From US4636515A, “Non-classical topical treatment for glaucoma” (University of Iowa Research Foundation, priority 1984, dated 1987)
